From patent US20100056516A1 (priority 2006, published 2010)
Structures can show the parent of a compound that is named as a salt.

Legend:
HIV integrase = HIV integrase (Human immunodeficiency virus type 1 group M subtype B, UniProt P04585); experiment: integrase strand transfer assay (STA); assay type: biochemical; settings: integrase strand transfer; read-out: IC50 in the STA assay
HXB2 virus = experiment: microbe, parasite or virus in culture; assay type: cell-based, HIV; settings: Human immunodeficiency virus 1, HXB2, HeLaP4-2, read-out: antiviral IC50 (SCIA-B)
Protocol: An assay for measuring the inhibition of acute HIV infection with HeLa P4-2 cells in a single cycle infectivity assay (SCIA-A) was conducted in accordance with Joyce, J. G., et al., J. Biol. Chem., 2002, 277, 45811, Hazuda, D. J. et al., Science, 2000, 287, 646, and Kimpton, J. et al, J. Virol. 1992, 66, 2232. Infectious virus was produced by transfecting 293T cells with HIV proviral DNA in which the integrase gene was derived from a IIIB isolate and the remainder of the HIV genome was derived from the NL4-3 isolate.
This assay B for measuring the inhibition of acute HIV infection with HeLa P4-2 cells in a single cycle infectivity assay (SCIA-B) is essentially the same as Assay A described above, except that HXB2 virus is employed instead of the IIIb isolate.

| Compound | IC50 (HIV integrase) [µM] | IC50 (HXB2 virus) [µM] |
| --- | --- | --- |
| CCOC(=O)c1c(O)c2cccnc2n(O)c1=O [Example 1, Ethyl 1,4-dihydroxy-2-oxo-1,2-dihydro-1,8-naphthyridine-3-carboxylate] | < 50 | < 100 |
| O=c1cc(O)c2cccnc2n1O [Example 2, 1,4-Dihydroxy-1,8-naphthyridin-2(1B)-one] | < 50 | < 100 |
| CCOC(=O)c1c(O)c2cc(Br)cnc2n(O)c1=O [Example 3, Ethyl 6-bromo-1,4-dihydroxy-2-oxo-1,2-dihydro-1,8-naphthyridine-3-carboxylate] | < 50 | < 100 |
| CN(C)C(=O)c1c(O)c2cccnc2n(O)c1=O [Example 5, 1,4-Dihydroxy-N,N-dimethyl-2-oxo-1,2-dihydro-1,8-naphthyridine-3-carboxamide] | < 50 | < 100 |
| O=C(NC1CC1)c1c(O)c2cccnc2n(O)c1=O [Example 6, N-Cyclopropyl-1,4-dihydroxy-2-oxo-1,2-dihydro-1,8-naphthyridine-3-carboxamide] | < 50 | < 100 |
| CN(Cc1ccccc1)C(=O)c1c(O)c2cccnc2n(O)c1=O [Example 7, N-Benzyl-1,4-dihydroxy-N-methyl-2-oxo-1,2-dihydro-1,8-naphthyridine-3-carboxamide] | < 50 | < 100 |
| O=C(c1c(O)c2cccnc2n(O)c1=O)N1CCCCC1 [Example 8, 1,4-Dihydroxy-3-(piperidin-1-ylcarbonyl)-1,8-naphthyridin-2(1H)-one] | < 50 | < 100 |
| CN(C(=O)c1c(O)c2cccnc2n(O)c1=O)C1CCN(C(=O)OC(C)(C)C)CC1 [Example 9] | < 50 | < 100 |
| CN(C(=O)c1c(O)c2cccnc2n(O)c1=O)C1CCN(C(=O)OC(C)(C)C)C1 (centres unmarked) [Example 10, tert-Butyl 3-[[(1,4-dihydroxy-2-oxo-1,2-dihydro-1,8-naphthyridin-3-yl)carbonyl](methyl)amino]pyrrolidine-1-carboxylate] | < 50 | < 100 |
| COc1ccccc1NC(=O)c1c(O)c2cccnc2n(O)c1=O [Example 11, 1,4-Dihydroxy-N-(2-methoxyphenyl)-2-oxo-1,2-dihydro-1,8-naphthyridine-3-carboxamide] | < 50 | < 100 |
| COc1cccc(NC(=O)c2c(O)c3cccnc3n(O)c2=O)c1 [Example 12, 1,4-Dihydroxy-N-(3-methoxyphenyl)-2-oxo-1,2-dihydro-1,8-naphthyridine-3-carboxamide] | < 50 | < 100 |
| COc1ccc(NC(=O)c2c(O)c3cccnc3n(O)c2=O)cc1 [Example 13, 1,4-Dihydroxy-N-(4-methoxyphenyl)-2-oxo-1,2-dihydro-1,8-naphthyridine-3-carboxamide] | < 50 | < 100 |
| COc1ccc(NC(=O)c2c(O)c3cccnc3n(O)c2=O)cn1 [Example 14, 1,4-Dihydroxy-N-(6-methoxypyridine-3-yl)-2-oxo-1,2-dihydro-1,8-naphthyridine-3-carboxamide] | < 50 | < 100 |
| O=C(Nc1ccccc1OCc1ccccn1)c1c(O)c2cccnc2n(O)c1=O [Example 15, 1,4-Dihydroxy-2-oxo-N-[2-(pyridin-2-ylmethoxy)phenyl]-1,2-dihydro-1,8-naphthyridine-3-carboxamide, hydrochloric acid salt] | < 50 | > 100 |
| O=C(Nc1cccnc1)c1c(O)c2cccnc2n(O)c1=O [Example 16, 1,4-Dihydroxy-2-oxo-N-pyridin-3-yl-1,2-dihydro-1,8-naphthyridine-3-carboxamide] | < 50 | < 100 |
| O=C(NCc1ccc(F)cc1)c1c(O)c2cccnc2n(O)c1=O [Example 18, N-(4-Fluorobenzyl)-1,4-dihydroxy-2-oxo-1,2-dihydro-1,8-naphthyridine-3-carboxamide] | < 50 | < 100 |
